Experiments:
[1] = test system: crabgrass, large (large crabgrass, Digitaria sanguinalis); experiment: Test A pre-/postemergence: crabgrass, large; assay type: in vivo
Outline: (§1)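 Visual 0–100 injury ratings (0 no effect, 100 complete control) taken about ten days after treatment, relative to untreated controls. Preemergence treatment was a directed soil spray; postemergence plants were 2–10 cm tall at one- to two-leaf stage. Soil: loam/sand blend.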

[2] = test system: foxtail, giant (giant foxtail, Setaria faberii); experiment: Test A pre-/postemergence: foxtail, giant; assay type: in vivo
Outline: as §1

[3] = test system: morningglory (Ipomoea spp.); experiment: Test A pre-/postemergence: morningglory; assay type: in vivo
Outline: as §1

[4] = test system: sedge, umbrella (small-flower umbrella sedge Cyperus difformis); experiment: Test B flooded paddy: sedge, umbrella; assay type: in vivo; settings: Flood; 125 g ai/ha; applied to paddy water at 2-leaf stage; visually evaluated after 13 to 15 days
Outline: (§2)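 Visual ratings on a 0–100 scale, where 0 means no effect and 100 means complete control, were assigned by comparison with controls 13 to 15 days after treatment. Compounds went into paddy water over 2-leaf plants flooded to 3 cm.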

[5] = test system: ducksalad (Heteranthera limosa); experiment: Test B flooded paddy: ducksalad; assay type: in vivo; settings: Flood; 125 g ai/ha; applied to paddy water at 2-leaf stage; visually evaluated after 13 to 15 days
Outline: as §2

kochia (Kochia scoparia) = experiment: Test C pre-/postemergence: kochia; assay type: in vivo; settings: Postemergence
Outline: (§3)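 Preemergence on seeds in loam/sand, postemergence on 2–18 cm (1–4-leaf) plants in peat-based medium; compounds in non-phytotoxic solvent with surfactant. After 13–15 days in greenhouse, visual rating versus controls, 0 (no effect) to 100 (complete control).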

[6] = test system: nutsedge, yellow (yellow nutsedge, Cyperus esculentus); experiment: Test C pre-/postemergence: nutsedge, yellow; assay type: in vivo
Outline: as §3

[7] = test system: ragweed (common ragweed, Ambrosia elation); experiment: Test C pre-/postemergence: ragweed; assay type: in vivo
Outline: as §3

soybean (Glycine max) = experiment: Test C pre-/postemergence: soybean; assay type: in vivo
Outline: as §3

[8] = test system: velvetleaf (Abutilon theophrasti); experiment: Test C pre-/postemergence: velvetleaf; assay type: in vivo
Outline: as §3

Barnyardgrass = experiment: Test C preemergence: barnyardgrass; assay type: in vivo, Echinochloa crus-galli
[9] = Postemergence, 125 g ai/ha, 0 to 100 scale, 0 is no effect, 100 is complete control
[10] = Postemergence, 500 g ai/ha, 0 to 100 scale, 0 is no effect, 100 is complete control
[11] = Preemergence, 125 g ai/ha, 0 to 100 scale where 0 is no effect and 100 is complete control
[12] = Preemergence, 500 g ai/ha, 0 to 100 scale (0 no effect, 100 complete control)
[13] = 125 g ai/ha, scale 0 to 100, 0 no effect, 100 complete control
[14] = Postemergence, 31 g ai/ha, scale 0 to 100 (0 no effect, 100 complete control)
[15] = Postemergence, 62 g ai/ha, scale 0 to 100 (0 no effect, 100 complete control)
[16] = Postemergence, 125 g ai/ha, scale 0 to 100, 0 no effect, 100 complete control
[17] = Postemergence, 250 g ai/ha, scale 0 to 100 (0 no effect, 100 complete control)
[18] = Preemergence, 31 g ai/ha, scale 0 (no effect) to 100 (complete control)
[19] = Preemergence, 62 g ai/ha, scale of 0 to 100, 0 is no effect, 100 is complete control
[20] = Preemergence, 125 g ai/ha, scale 0 to 100, 0 no effect, 100 complete control
[21] = Preemergence, 250 g ai/ha, scale 0 to 100, 0 no effect, 100 complete control

CCc1nn(-c2ccc(C(F)(F)F)c(F)c2)nc1Oc1ccnc(C(F)(F)F)c1 [Compound 183]
Plant response rating, Crabgrass, Large [1, 9]: 90
Crabgrass, Large plant response rating [1, 10]: 90
Plant response rating, Crabgrass, Large [1, 11]: 100
Plant response rating, Crabgrass, Large [1, 12]: 100
Plant response rating, Foxtail, Giant [2, 9]: 90
Foxtail, Giant plant response rating [2, 10]: 90
Plant response rating, Foxtail, Giant [2, 11]: 100
Plant response rating, Foxtail, Giant [2, 12]: 100
Plant response rating, Morningglory [3, 9]: 100
Morningglory plant response rating [3, 10]: 100
Plant response rating, Morningglory [3, 11]: 70
Plant response rating, Morningglory [3, 12]: 90
Plant response rating, Sedge, Umbrella (0 to 100 scale, 0 is no effect, 100 is complete control) [4]: 95
Plant response rating, Ducksalad (0 to 100 scale, 0 is no effect, 100 is complete control) [5]: 65
Plant response rating, Kochia (kochia (Kochia scoparia); 31 g ai/ha, scale 0 to 100 (0 no effect, 100 complete control)): 90
Plant response rating, Kochia (kochia (Kochia scoparia); 62 g ai/ha, scale 0 to 100 (0 no effect, 100 complete control)): 90
Plant response rating, Kochia (kochia (Kochia scoparia); [13]): 90
Plant response rating, Kochia (kochia (Kochia scoparia); 250 g ai/ha, scale 0 to 100 (0 no effect, 100 complete control)): 95
Plant response rating, Nutsedge, Yellow [6, 14]: 10
Plant response rating, Nutsedge, Yellow [6, 15]: 10
Plant response rating, Nutsedge, Yellow [6, 16]: 10
Plant response rating, Nutsedge, Yellow [6, 17]: 10
Plant response rating, Nutsedge, Yellow [6, 18]: 0
Plant response rating, Nutsedge, Yellow [6, 19]: 0
Plant response rating, Nutsedge, Yellow [6, 20]: 5
Plant response rating, Nutsedge, Yellow [6, 21]: 5
Plant response rating, Ragweed [7, 14]: 65
Plant response rating, Ragweed [7, 15]: 80
Plant response rating, Ragweed [7, 16]: 90
Plant response rating, Ragweed [7, 17]: 95
Plant response rating, Ragweed [7, 18]: 50
Plant response rating, Ragweed [7, 19]: 50
Plant response rating, Ragweed [7, 20]: 95
Plant response rating, Ragweed [7, 21]: 95
Plant response rating, Soybean (soybean (Glycine max); [14]): 35
Plant response rating, Soybean (soybean (Glycine max); [15]): 55
Plant response rating, Soybean (soybean (Glycine max); [16]): 55
Plant response rating, Soybean (soybean (Glycine max); [17]): 90
Plant response rating, Soybean (soybean (Glycine max); [18]): 5
Plant response rating, Soybean (soybean (Glycine max); [19]): 5
Plant response rating, Soybean (soybean (Glycine max); [20]): 10
Plant response rating, Soybean (soybean (Glycine max); [21]): 30
Plant response rating, Velvetleaf [8, 14]: 75
Plant response rating, Velvetleaf [8, 16]: 75
Plant response rating, Velvetleaf [8, 17]: 75
Plant response rating, Velvetleaf [8, 18]: 45
Plant response rating, Velvetleaf [8, 19]: 55
Plant response rating, Velvetleaf [8, 20]: 100
Plant response rating, Velvetleaf [8, 21]: 100
Plant response rating, Barnyardgrass (Barnyardgrass; 31 g ai/ha, scale 0 (no effect) to 100 (complete control)): 40
Plant response rating, Barnyardgrass (Barnyardgrass; 62 g ai/ha, scale of 0 to 100, 0 is no effect, 100 is complete control): 95
Plant response rating, Barnyardgrass (Barnyardgrass; [13]): 100

Source: patent US9302999B2, “Substituted triazoles as herbicides” (E. I. DU PONT DE NEMOURS AND COMPANY, priority 2012, dated 2016)
